In one test the test system is mice. Nature of the test: 2-phenyl-1,4-benzoquinone-induced writhing test in mice. It counts as in vivo. The note with it: phenylquinone writhing. The text has this: The compounds of Formula I of the present invention are also useful as analgesic agents due to their ability to alleviate pain in mammals.
(An intraperitoneal irritant provokes the stretching counted in writhing tests.)

Another test concerns serotonergic system. Nature of the test: L-5-hydroxytryptophan potentiation in rats. Format: in vivo. The conditions noted are these: male Wistar rats, i.p.; for % Potentiation: @ 20 mg/kg, normalized relative to vehicle control; for ED50: Rattus norvegicus, ip, forelimb clonus after pargyline + 5-HTP. The procedure: According to the monoamine hypothesis of depression, compounds exert antidepressant activity because they are capable of enhancing central noradrenergic and/or serotonergic function (Shtee and […] 1971; Douglas 1975; Lingjaerde 1973). This procedure is used to evaluate enhanced activity of the serotonergic system. Groups of six male Wistar rats (150-200 g) are used in this test procedure. […] Thirty minutes before the 5-HTP administration, drugs are prepared and dosed using distilled water and, if insoluble, a suitable surfactant is added. Control groups receive vehicle. Drugs are routinely administered i.p. at a dosage volume of 10 ml/kg. L-5-hydroxytrpytophan (Calbiochem-Behring Corp.) is prepared at 1.0 mg/kg in distilled water and is administered i.p. in volumes proportional to 10 ml/kg. Fifteen minutes post-5-HTP treatment, each animal is observed for 10 seconds. Animal observations and 5-HTP administration are done in the presence of "white noise". In a dose range, drugs are administered in a randomized manner. […] Potentiation is expressed as normalized percent potentiation relative to vehicle control. […] An ED50 and 95% confidence limit are determined by Litchfield and Wilcoxon.

Regarding `CN1CCN(CC#CCN2C(=O)c3cccc4c3N(CC4)c3ccccc32)CC1.O=C(O)/C=C/C(=O)O` [1,2-Dihydro-7-[4-(4-methyl-1-piperazinyl)-2-butynyl]benzo[b]pyrrolo[3,2,1-jk][1,4]benzodiazepin-6-one fumarate], the “Inhibition at 20 mg/kg, s.c.” value in the test with mice was determined as 44%.

As to `COc1ccccc1N1CCN(CC#CCN2C(=O)c3cccc4c3N(CC4)c3ccc(Br)cc32)CC1` [9-Bromo-1,2-dihydro-7-[4-[4-(2-methoxyphenyl)-1-piperazinyl]-2-butynyl]-2-butynyl]benzo[b]pyrrolo[3,2,1-jk][1,4]benzodiazepin-6-one], the “% Potentiation” value in the test with serotonergic system was determined as 50%.

`CC1CCN(CC#CCN2C(=O)c3cccc4c3N(CC4)c3ccccc32)CC1` [1,2-Dihydro-7-[4-(4-methyl-1-piperidinyl)-2-butynyl]benzo[b]pyrrolo[3,2,1-jk][1,4]benzodiazepin-6-one hemifumarate]: the ED50 in the test on serotonergic system worked out at 25.3 mg/kg.

As to `CC1CCN(CC#CCN2C(=O)c3cccc4c3N(CC4)c3ccc(Br)cc32)CC1` [9-Bromo-1,2-dihydro-7-[4-(4-methyl-1-piperidinyl)-2-butynyl]benzo[b]pyrrolo[3,2,1-jk][1,4]benzodiazepin-6-one hemifumarate], the “Inhibition at 20 mg/kg, s.c.” value with mice is listed as 41%.

Consider `CN(C)CCC=C1c2ccccc2CCc2ccccc21` [Amitriptyline, reference compound], for which, in the test on serotonergic system, the ED50 was 7.1 mg/kg.

In the case of `CCC(=O)O[C@](Cc1ccccc1)(c1ccccc1)[C@H](C)CN(C)C` [Propoxyphene, reference compound], the ED50 in the test with mice (Mus musculus, sc, read-out: ED50 (writhing inhibition)) worked out at 3.9 mg/kg.

`O=C1c2cccc3c2N(CC3)c2ccc(Br)cc2N1CC#CCN1CCC(n2c(=O)[nH]c3ccccc32)CC1` [9-Bromo-1,2-dihydro-7-[4-[4-(2-oxo-1H-benzimidazol-3-yl)-1-piperidinyl-2-butynyl]benzo[b]pyrrolo[3,2,1-jk][1,4]benzodiazepin-6-one monohydrate]: in the test with mice, the “Inhibition at 20 mg/kg, s.c.” value is on record as 42%.

With `CN1CCN(CC#CCN2C(=O)c3cccc4c3N(CC4)c3ccc(Br)cc32)CC1.O=C(O)/C=C/C(=O)O` [9-Bromo-1,2-dihydro-7-[4-(4-methyl-1-piperazinyl)-2-butynyl]benzo[b]pyrrolo[3,2,1-jk][1,4]benzodiazepin-6-one fumarate], the “% Potentiation” value with serotonergic system amounted to 50%.

By Inhibition is commonly meant the relative decrease from the control value, in per cent. High values mean a strong effect, low ones a weak effect. What is called ED50 is the dose at which the effect has come halfway, by size or by number of responders.

The values are drawn from patent US5536717A, “7-[4-(substituted amino)-2-butynl]benzo[B]pyrrolo[3,2,1-JK]-[1,4]benzodiazepin-6-ones” (Hoechst Marion Roussel Inc., priority 1993, dated 1996).
